Experimental data published in patent US20200362024A1, “BIOLOGICAL MATERIALS AND USES THEREOF” (IMPERIAL INNOVATIONS LIMITED, priority 2009, published 2020).

Assays:
[1] = system: primary human macrophages; assay: Cytokine synthesis by primary human macrophages stimulated with FBG peptides; format: cell-based; conditions: 1 or 20 μM peptide, 24 h (IL8, FIG. 17)
Description: (§1) After incubation the tissue was pipetted through a nylon mesh into a sterile beaker. The cells were then washed three times in complete medium (RPMI 1640 supplemented with 10% FCS). RA synovial fibroblasts were isolated from the mixed population of RA membrane cells by selection in DMEM (Bio-Whittaker) supplemented with 10% FBS, […], 100 U/ml penicillin, and streptomycin. Human monocytes were isolated from peripheral blood (London Blood Bank) and macrophages were derived from monocytes after differentiation for 4 days with 100 ng/ml of M-CSF.
(§2) Macrophages were cultured at 1×10^5 cells/well in RPMI 1640 containing 5% (v/v) FBS and 100 U/ml penicillin/streptomycin in 96-well tissue culture plates for 24 h before stimulation. Cells were incubated for 24 h at 37° C. with no addition, 1.0 μM FBG, 1 ng/ml LPS or 1 or 20 μM FBG peptide. Where stated, cells were pre-incubated with 20 μM FBG peptides for 15 min.
(§3) Supernatants were examined for the presence of the cytokines TNF-α, IL-6, and IL-8 by enzyme-linked immunosorbent assay (ELISA) according to the manufacturer's instructions (R&D systems). Absorbance was read on a spectrophotometric ELISA plate reader (Labsystems Multiscan Biochromic, Vantaa, Finland) and analyzed using the Ascent software program (Thermo Labsystems, Altrincham, UK).

RA membrane cells = assay: Blockade of spontaneous cytokine synthesis in RA synovial membrane cultures by FBG peptides; format: cell-based, human; conditions: for inhibition of cytokine synthesis: highest concentrations, dose dependent (25, 100 or 250 μM, TNF & IL8, FIG. 16); for TNF and IL8 synthesis (inhibition): spontaneous cytokine synthesis, 24 h with peptide
Description: RA membrane cells (representing a mixed population of all synovial cell types) were isolated from synovial membranes obtained from patients undergoing joint replacement surgery (Brennan (1989)). Synovial membrane tissue was digested in RPMI 1640 (GIBCO) containing 5% fetal calf serum (FCS) (GIBCO), 5 mg/ml collagenase type IV (Sigma) and 0 15 mg/ml DNAse type I (Sigma) and incubated at 37° C. for 2 h.
Immediately after isolation, RA membrane cells were cultured at 1×10^5 cells/well in RPMI 1640 containing 10% (v/v) FBS and 100 U/ml penicillin/streptomycin in 96-well tissue culture plates. Cells were incubated for 24 h at 37° C. with no addition, buffer control (PBS, 1% BSA, 0.01% NaN3), or with 25 μm, 100 μM or 250 μM of each FBG spanning peptide.
as §3

human macrophages = assay: FBG or LPS induced cytokine synthesis in human macrophages pre-incubated with FBG peptides; format: cell-based; conditions: pre-incubated with 20 μM peptide for 15 min; for FBG mediated cytokine synthesis (block): then 1.0 μM FBG 24 h
Description: as §1, §2, §3

[2] = system: human macrophages and RA synovial fibroblasts; assay: Ligand induced cytokine synthesis after pre-incubation with function blocking antibodies or inhibitors; format: cell-based; conditions: 10 μg/ml IL1 receptor antagonist pre-incubation
Description: (§4) Cells were incubated for 24 hours at 37° C. with the indicated doses of tenascin-C and recombinant tenascin-C fragments (1.0 μM-1.0 nM). Cells were also stimulated where indicated with LPS (1 ng/ml for human macrophages, 10 ng/ml for human fibroblasts, RA membrane cells and HEKs, 100 ng/ml for MEFS and BMDMs and 10 ng/ml for HEKS), PAM3 (10 ng/ml for human macrophages, human fibroblasts, and HEKs, 100 ng/ml for MEFs and BMDMs), murine IL-1 (5 ng/ml for MEFS) and murine TNF-α (100 ng/ml for MEFS). Unless specifically stated otherwise rough LPS was used for in vitro studies.
(§5) Where stated, cells were pre-incubated with 10 μg/ml anti-CD14 antibody, 10 μg/ml IL1 receptor antagonist, 10 μg/ml anti-TLR2 antibody, 25 μg/ml anti-TLR4 antibody, 10 or 25 μg/ml isotype control antibody, 25 μg/ml polymyxin B, or 1 μg/ml msbB LPS, for 30 minutes at 37° C. before stimulation. Where stated, recombinant tenascin-C and FBG, and LPS were boiled for 15 minutes before addition to cells
as §3, with “were subsequently” for “were”, “instructions.” for “instructions (R&D systems).”

[3] = system: TLR2 or TLR4 deficient embryonic fibroblasts and bone marrow derived macrophages; assay: Cytokine synthesis in embryonic fibroblasts and macrophages from TLR2 or TLR4 deficient mice; format: cell-based, mouse; conditions: 24 h
Excerpt: (§6) Homozygous TLR2 and TLR4 deficient mice on a C57BL/6 background (an inbred strain of mice with a black coat) were obtained from B&K Universal (Hull, UK) Hoshino (1999) and Takeuchi (1999). Homozygous MyD88 deficient mice on a C57BL/6 background were provided by the Sanger Institute (Cambridge, UK). Age matched congenic inbred wild type C57B/L6 mice were obtained from Charles River (Margate, UK). For isolation of mouse embryo fibroblasts one female aged 8-10 weeks was mated with two males aged 8-10 weeks. For isolation of bone marrow derived macrophages mice were female and between 10-12 weeks of age at the time of experimentation.
MEFs express high levels of mRNA of all 9 murine TLRs and are specifically and highly responsive to TLR ligand activation. […] MEFs were isolated from d13 embryos harvested from age-matched, pregnant female wild type, TLR2, TLR4 and null mice (as described in Todaro (1963)). Fibroblasts were cultured at 2×10^4 cells/well in DMEM containing 10% (v/v) FBS and 100 U/ml penicillin/streptomycin in 96-well tissue culture plates for 24 hours before stimulation.
BMDMs were derived by aspirating the femurs of age matched female wild type, TLR2 and TLR4 null mice as described in Butler (1999)) and culturing the cells for 7 days in DMEM, 20% (v/v) FBS, 10 ml/L (v/v) antibiotic-antimycotic solution PSA, 50 μM Mercaptoethanol and 10 ng/ml M-CSF. Macrophages were then cultured at 1×10^5 cells/well in DMEM, 20% (v/v) FBS, 10 ml/L (v/v) antibiotic-antimycotic solution PSA, 50 μM β-Mercaptoethanol in 96-well tissue culture plates for 24 hours before stimulation.
as §4
as §3, with “were subsequently” for “were”, “instructions.” for “instructions (R&D systems).”

[4] = system: MyD88 deficient mouse embryonic fibroblasts; assay: Cytokine synthesis in mouse embryonic fibroblasts from MyD88 deficient mice; format: cell-based; conditions: 24 h; FBG 1 μM, PAM3, LPS, TNFα 100 ng/ml, IL-1 5 ng/ml
Excerpt: as §6, with “Homozygous” for “Homozygous TLR2 and TLR4 deficient mice on a C57BL/6 background (an inbred strain of mice with a black coat) were obtained from B&K Universal (Hull, UK) Hoshino (1999) and Takeuchi (1999). Homozygous”
MEFs express high levels of mRNA of all 9 murine TLRs and are specifically and highly responsive to TLR ligand activation. […] Fibroblasts were cultured at 2×10^4 cells/well in DMEM containing 10% (v/v) FBS and 100 U/ml penicillin/streptomycin in 96-well tissue culture plates for 24 hours before stimulation.
as §4
as §3, with “were subsequently” for “were”, “instructions.” for “instructions (R&D systems).”

[5] = system: primary human macrophages; assay: Cytokine synthesis in primary human macrophages stimulated with tenascin-C or its domains; format: cell-based
Description: Human monocytes were isolated from peripheral blood (London Blood Bank) and macrophages were derived from monocytes after differentiation for 4 days with 100 ng/ml of M-CSF as previously described (Foxwell (1998)).
(§7) Immediately after isolation, RA membrane cells and macrophages were cultured at 1×10^5 cells/well in RPMI 1640 containing 10% (v/v) FBS and 100 U/ml (Units/ml) penicillin/streptomycin in 96-well tissue culture plates for 24 hours before stimulation. Synovial fibroblasts (used only at either passage number 2 or 3) were cultured at 1×10^4 cells/well in DMEM containing 10% (v/v) FBS and 100 U/ml penicillin/streptomycin in 96-well tissue culture plates for 24 hours before stimulation.
as §4, §5
as §3, with “were subsequently” for “were”, “instructions.” for “instructions (R&D systems).”

RA synovial fibroblasts [6] = assay: Cytokine synthesis in RA synovial fibroblasts stimulated with tenascin-C, FBG or LPS; format: cell-based, human; conditions: 24 h
Excerpt: RA membrane cells (representing a mixed population of all synovial cell types) were isolated from synovial membranes obtained from patients undergoing joint replacement surgery as previously described (Brennan (1989)). RA synovial fibroblasts were isolated from the mixed population of RA membrane cells as previously described (Brennan (1989)). The study was approved by the local Trust ethics committee (Riverside NHS Research Committee), and waste tissue (synovium after joint replacement surgery) was obtained only after receiving signed informed consent from the patient and anonymyzing the tissue to protect patient identity.
as §7, §4, §5
as §3, with “were subsequently” for “were”, “instructions.” for “instructions (R&D systems).”

RA synovial fibroblasts [7] = assay: Cytokine synthesis in RA synovial fibroblasts transfected with tenascin-C siRNA; format: cell-based, human; conditions: compared to control cells (IL6)
Description: (§8) Synovial fibroblasts (used only at either passage number 2 or 3) were seeded at a concentration of 5×10^4 cells in a 3.5-cm dish. siRNA was transfected at a final concentration of 10 nM using Lipofectamine 2000 (Invitrogen) for 4 h in serum-free OptiMEM I. Two different siRNAs against human tenascin-C were used (s7069 and s229491) (Applied Biosystems).
Four hours after transfection, medium was changed with pre-equilibrated Dulbecco's modified Eagle's medium containing 10% FBS (v/v) and cells were incubated for a further 48 h and 72 h. Cells were then stimulated with 10 ng/ml LPS for 24 h at 37° C. Tenascin-C mRNA and protein levels were quantitated by PCR and western blotting respectively. Total RNA was extracted from cells using a QiaAmp RNA Blood mini kit (Qiagen, Germany). cDNA was synthesised from equivalent amounts of total RNA using SuperScript® III Reverse Transcriptase (invitrogen) and 18-mer oligo dTs (Eurofins MWG Operon).
as §3

tenascin-C = assay: siRNA mediated knockdown of tenascin-C expression in RA synovial fibroblasts; format: cell-based, human; conditions: 10 nM siRNA, compared to luciferase siRNA control
Description: as §8
siRNA sequences of s7069 are: (sense 5′ […]tt 3′, antisense 5′ […]tc 3′) and of s229491 are (5′ […]tt 3′, antisense 5′ […]gg 3′). siRNA against luciferase (Dharmacon) was transfected as a non-targeting control.
Four hours after transfection, medium was changed with pre-equilibrated Dulbecco's modified Eagle's medium containing 10% FBS (v/v) and cells were incubated for a further 48 h and 72 h. Cells were then stimulated with 10 ng/ml LPS for 24 h at 37° C. Tenascin-C mRNA and protein levels were quantitated by PCR and western blotting respectively. […]
Gene expression was analysed by delta-delta ct methods based on quantitative real-time PCR with TaqMan primer set human tenascin-C(Hs01115663-ml) and human ribosomal protein endogenous control (RPLPO) (4310879E) (Applied Biosystems) in a Corbett Rotor-gene 6000 machine (Corbett Research Ltd). Tenascin-C protein was detected in cell supernatants and cell lysates by SDS PAGE and western blotting using antibody MAB1908 (Millipore).

ELRVDLRDHGETAFAVYDKFSVGDAKTRYK [Peptide 5]
cytokine synthesis (induction) [1]: induced cytokine synthesis in a dose dependent manner
effect on TNF synthesis (RA membrane cells; RA membrane cells, 24 h): no effect
maximal inhibition of IL8 synthesis (RA membrane cells; RA membrane cells, dose dependent): 81%
FBG mediated cytokine synthesis (block) (human macrophages): specifically blocked

IL-1 receptor antagonist: IL-1 receptor antagonist from R&D Systems
inhibition of FBG induction of cytokines [2]: did not inhibit

KTRYKLKVEGYSGTAGDSMAYHNGRSFST [Peptide 6]
cytokine synthesis (induction) [1]: induced cytokine synthesis in a dose dependent manner

Pam3Cys-Ser-Lys4 [reference compound]
cytokine synthesis in cells from TLR2 deficient mice [3]: unresponsive
cytokine synthesis in cells from TLR4 deficient mice [3]: did respond
cytokine synthesis in embryonic fibroblasts with targeted deletion of MyD88 [4]: abolished

TIGLLYPFPKDCSQAMLNGDTTSGLYTIYL [Peptide 1]
cytokine synthesis (induction) [1]: induced cytokine synthesis in a dose dependent manner

TNF-α [reference compound]
cytokine synthesis in embryonic fibroblasts with targeted deletion of MyD88 [4]: unaffected

WIVFLRRKNGRENFYQNWKAYAAGFGDRRE [Peptide 3]
inhibition of cytokine synthesis (RA membrane cells): 95%
TNF and IL8 synthesis (inhibition) (RA membrane cells): inhibited

WYRNCHRVNLMGRYGDNNHSQGVNWFHWKG [Peptide 8]
inhibition of cytokine synthesis (RA membrane cells): 56%
TNF and IL8 synthesis (inhibition) (RA membrane cells): inhibited
cytokine synthesis in response to LPS (block) (human macrophages; then 1 ng/ml LPS 24 h): blocked
FBG mediated cytokine synthesis (block) (human macrophages): blocked

tenascin-C: recombinant full-length human tenascin-C purified from HEK293 conditioned medium
production of TNF-α, IL-6 and IL-8 in human macrophages ([5]; 1.0 μM-1.0 nM, 24 h): dose dependently stimulated
cytokine stimulation: heat sensitivity and effect of polymyxin B ([5]; boiled 15 minutes, 25 μg/ml polymyxin B pre-incubation, human macrophages and synovial fibroblasts): heat sensitive and unaffected by the LPS inhibitor, polymyxin B
TNF-α synthesis in fibroblasts (RA synovial fibroblasts [6]): Neither LPS nor tenascin-C induced
IL-6 synthesis in RA synovial fibroblasts (RA synovial fibroblasts [6]; LPS 10 ng/ml): only induced IL-6 synthesis
IL-8 synthesis in RA synovial fibroblasts (RA synovial fibroblasts [6]; LPS 10 ng/ml): only induced IL-6 synthesis

B1: tenascin-C siRNA: tenascin-C targeted siRNAs; combination of oligos 1+2 used for cytokine synthesis (nucleic acid)
sense 1: CGCGAGAACUUCUACCAAATT
antisense 1: UUUGGUAGAAGUUCUCGCGTC
sense 2: GGAAUAUGAAUAAAGAAGATT
antisense 2: UCUUCUUUAUUCAUAUUCCGG
modifications: chemistry not given here
notes: tenascin-C targeted siRNAs; combination of oligos 1+2 used for cytokine synthesis
inhibition of LPS induced cytokine production (RA synovial fibroblasts [7]; 10 ng/ml LPS 24 h): 44%
inhibition of basal level of cytokine synthesis (RA synovial fibroblasts [7]): 38%
knockdown of tenascin-C expression, maximal efficiency (tenascin-C): 94-96%

B2: IL-1: murine IL-1 used to stimulate MEFs (protein, UniProt P10749 118-269, looked up)
Interleukin-1 beta: VPIRQLHYRLRDEQQKSLVLSDPYELKALHLNGQNINQQVIFSMSFVQGEPSNDKIPVALGLKGKNLYLSCVMKDGTPTLQLESVDPKQYPKKKMEKRFVFNKIEVKSKVEFESAEFPNWYISTSQAEHKPVFLGNNSGQDIIDFTMESVSS
cytokine synthesis in cells from TLR2 deficient mice [3]: responsive
cytokine synthesis in cells from TLR4 deficient mice [3]: did respond
cytokine synthesis in embryonic fibroblasts with targeted deletion of MyD88 [4]: abolished
